Patent US10457641B2, “Certain chemical entities, compositions, and methods” (NEUPHARMA, INC., priority 2012, dated 2019)

How the values were obtained:
BRAF V600E = target: T1, BRAF V600E (Homo sapiens, UniProt P15056, V600E); assay: Z'-LYTE kinase inhibition assay, BRAF V600E; assay type: biochemical; details: 1 μM compound; Z'-LYTE method
T1 construct: purchased Invitrogen
Experimental: (§1) Inhibitory activities of compounds against BRAF or BRAF V600E were measured by Invitrogen using Z′-LYTE® Method as briefly described in the following.
(§2) 4× Test compounds are dissolved in 1% DMSO. […] ATP solutions are diluted to a 4×ATP working concentration in Kinase Buffer (50 mM HEPES pH 7.5, 0.01% BRIJ-35, 10 mM MgCl2, 1 mM EGTA).
(§3) Reaction starts by 30-second shaking of mixture consisting of 2.5 μL 4× test compound, 2.5 μL 2× kinase reaction mixture and 2.5 μL 4×ATP Solution on Bar-coded Corning, low volume NBS, black 384-well plate (Corning Cat. #3676). Then the mixture is incubated for 60-minute at room temperature for the kinase reaction, followed by addition of 5 μL of a 1:1024 dilution of development reagent A and 30-second plate shake. The mixture is then incubated for another 60-minute at room temperature for development reaction. Finally fluorescence is read by plate reader.

[1] = tested on: Colo-205 (human colon carcinoma cell); assay: Inhibition of cancer cell growth, MTS assay, Colo-205; assay type: cell-based; details: 72 h treatment
Experimental: (§4) A375 (human melanoma cell, BRAF V600E Mutant), A549 (adenocarcinomic human alveolar basal epithelial cell) and Colo-205 (human colon carcinoma cell) were purchased from ATCC (American Type Culture Collection, Manassas, Va.). All cell lines were maintained in RPMI 1640 (Hyclone) or DMEM (Hyclone) supplemented with 10% fetal bovine serum (FBS, Hyclone), glutamine (2 mM, Hyclone), and antibiotics (penicillin 100 U/mL and streptomycin 50 μg/mL) at 37° C. in a humidified atmosphere of 5% CO2 in air.
(§5) To test IC50 of inhibition of individual compounds against each cell line, A375, A549 and Colo-205 cells were first plated in 96-well plates at densities of 2000-4000 cells/well. Cells were then incubated to allow cells to adhere and grow for 24 h. Cells were then treated with a series of concentrations of compounds for 72 h. The highest concentration of compounds was 20 μM. Cells were then removed from the incubator and medium was removed by inverting and tapping the plates. 100 μL of MTT (0.5 mg/ml) or 10 μL or MTS was added to each well followed by an incubated at 37° C. for 4 h. Then MTT was removed and 200 μL of DMSO was added to each well, followed by reading the ODs at 570 nm after a 5 second shaking cycle in a 96-well spectrophotometer. For MTS method, MTS was not removed, and the incubated solutions were directly put in a 96-well spectrophotometer for the reading of the ODs at 492 nm.
(§6) IC50 was calculated by plotting the concentration of compound vs the percentage of inhibition in treated wells using GraphPad Prism 5. […] The scale utilized in Table 3 is as follows: +++ less than 1 μM; ++ between 1 μM and 5 μM; and + greater than 5 μM.

[2] = tested on: A375 (human melanoma cell, BRAF V600E Mutant); assay: Inhibition of cancer cell growth, MTT assay, A375; assay type: cell-based; details: A-375, 72 h treatment
Experimental: as §4, §5, §6

[3] = tested on: A549 (adenocarcinomic human alveolar basal epithelial cell); assay: Inhibition of cancer cell growth, MTT assay, A549; assay type: cell-based; details: 72 h treatment
Experimental: as §4, §5, §6

BRAF = target: T2, BRAF (Homo sapiens, UniProt P15056); assay: Z'-LYTE kinase inhibition assay, BRAF; assay type: biochemical; details: 1 μM compound; Z'-LYTE method
T2 construct: purchased Invitrogen
T2 sequence (P15056 whole entry): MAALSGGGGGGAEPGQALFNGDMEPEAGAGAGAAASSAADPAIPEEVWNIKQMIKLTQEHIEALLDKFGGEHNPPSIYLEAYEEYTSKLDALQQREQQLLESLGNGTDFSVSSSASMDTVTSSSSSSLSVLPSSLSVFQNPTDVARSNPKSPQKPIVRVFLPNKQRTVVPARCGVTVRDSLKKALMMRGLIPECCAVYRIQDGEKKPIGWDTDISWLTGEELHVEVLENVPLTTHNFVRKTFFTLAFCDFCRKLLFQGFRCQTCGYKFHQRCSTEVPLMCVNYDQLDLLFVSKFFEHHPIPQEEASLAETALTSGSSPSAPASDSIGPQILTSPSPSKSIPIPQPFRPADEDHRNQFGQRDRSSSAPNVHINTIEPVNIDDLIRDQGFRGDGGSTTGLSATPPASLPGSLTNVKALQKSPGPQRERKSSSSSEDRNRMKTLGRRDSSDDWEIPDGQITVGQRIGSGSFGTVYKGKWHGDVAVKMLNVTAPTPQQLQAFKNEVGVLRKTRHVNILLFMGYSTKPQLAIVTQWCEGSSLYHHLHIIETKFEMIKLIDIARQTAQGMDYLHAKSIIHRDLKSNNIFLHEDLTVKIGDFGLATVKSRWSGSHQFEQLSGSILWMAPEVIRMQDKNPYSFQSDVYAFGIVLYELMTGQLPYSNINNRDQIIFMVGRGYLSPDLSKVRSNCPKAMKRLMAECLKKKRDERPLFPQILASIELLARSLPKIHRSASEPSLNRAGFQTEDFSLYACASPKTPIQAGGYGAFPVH
Experimental: as §1, §2, §3

T1 sequence (P15056 whole entry V600E): as the sequence (P15056 whole entry) above, with V600E counted along it

Structure (SMILES)	inhibition at 1 µM (BRAF V600E) [%]	IC50 [1] [µM]	IC50 [2] [µM]	inhibition at 1 µM (BRAF) [%]	IC50 [3] [µM]
CCCS(=O)(=O)Nc1cc(F)c(F)c(C(=O)c2ccc3ncccc3c2)c1F [Compound C001, N-(2,4,5-trifluoro-3-(quinoline-6-carbonyl)phenyl)propane-1-sulfonamide]	> 89	1 to 5	< 1	70 to 89	> 5
O=C(Nc1ccc(F)cc1)Nc1cc(F)c(F)c(C(=O)c2ccc3ncccc3c2)c1F [Compound C003, 1-(4-fluorophenyl)-3-(2,4,5-trifluoro-3-(quinoline-6-carbonyl)phenyl)urea]	< 70	> 5	> 5	< 70	> 5
CCCS(=O)(=O)Nc1cc(F)c(F)c(C(=O)c2ccc3ncncc3c2)c1F [Compound C010, N-(2,4,5-trifluoro-3-(quinazoline-6-carbonyl)phenyl)propane-1-sulfonamide]	> 89	< 1	< 1	> 89	> 5
O=C(Nc1cccc(F)c1)Nc1cc(F)c(F)c(C(=O)c2ccc3ncccc3c2)c1F [Compound C002, 1-(3-fluorophenyl)-3-(2,4,5-trifluoro-3-(quinoline-6-carbonyl)phenyl)urea]	< 70	> 5	> 5		1 to 5

The next lines start with results.

inhibition at 1 µM (BRAF V600E) [%]	IC50 [1] [µM]	IC50 [2] [µM]	inhibition at 1 µM (BRAF) [%]	Structure (SMILES)	IC50 [3] [µM]
< 70	> 5	> 5		O=C(Nc1cc(F)c(F)c(C(=O)c2ccc3ncccc3c2)c1F)c1ccc(F)c(F)c1 [Compound C009, 3,4-difluoro-N-(2,4,5-trifluoro-3-(quinoline-6-carbonyl)phenyl)benzamide]	> 5
< 70	> 5	> 5		O=C(Nc1ccc(F)c(F)c1)Nc1cc(F)c(F)c(C(=O)c2ccc3ncccc3c2)c1F [Compound C004, 1-(3,4-difluorophenyl)-3-(2,4,5-trifluoro-3-(quinoline-6-carbonyl)phenyl)urea]	1 to 5
< 70	> 5	> 5	< 70	O=C(Nc1cc(F)c(F)c(C(=O)c2ccc3ncccc3c2)c1F)c1cc(F)cc(F)c1 [Compound C008, 3,5-difluoro-N-(2,4,5-trifluoro-3-(quinoline-6-carbonyl)phenyl)benzamide]	> 5
< 70	> 5	1 to 5		O=C(Nc1cc(F)cc(F)c1)Nc1cc(F)c(F)c(C(=O)c2ccc3ncccc3c2)c1F [Compound C005, 1-(3,5-difluorophenyl)-3-(2,4,5-trifluoro-3-(quinoline-6-carbonyl)phenyl)urea]	1 to 5
< 70	> 5	> 5		O=C(Nc1cc(F)c(F)c(C(=O)c2ccc3ncccc3c2)c1F)c1ccc(F)cc1 [Compound C007, 4-fluoro-N-(2,4,5-trifluoro-3-(quinoline-6-carbonyl)phenyl)benzamide]	> 5
70 to 89	> 5	> 5	< 70	O=C(Nc1cc(F)c(F)c(C(=O)c2ccc3ncccc3c2)c1F)c1cccc(F)c1 [Compound C006, 3-fluoro-N-(2,4,5-trifluoro-3-(quinoline-6-carbonyl)phenyl)benzamide]	> 5
